In ChEMBL document CHEMBL3885861, “Open TG-GATES”:

Species: Rattus norvegicus
Test: Open TG-GATES - Regimen: Single
Type: toxicity, organism-based, Sprague-Dawley
Design: regimen Single, gender Male, age 6 weeks
Details: in vivo, po, 0 mg/kg, route gavage, dose level Control; for APTT / Bas / Eos / Fbg / Hb / Ht / Lym / MCH / MCHC / MCV / Mono / Neu / PT / Plat / RBC / Ret / WBC: tissue Blood; for KIDNEY_L / KIDNEY_R / KIDNEY_TOTAL: tissue Kidney; for LIVER: tissue Liver; for A/G / ALP / ALT / AST / BUN / CRE / Ca / Cl / DBIL / GLC / IP / K / LDH / Na / PL / RALB / TBIL / TC / TG / TP / gamma-GTP: tissue Plasma

CCC1(c2ccccc2)C(=O)NC(=O)NC1=O [PHENOBARBITAL]
TERMINAL_BW (3 h): 221.7 g | APTT (3 h): 19.3 s | Bas (3 h): 0.4% | Eos (3 h): 1% | Fbg (3 h): 219.2 mg/dL | Hb (3 h): 13.6 g/dL | Ht (3 h): 37.5% | Lym (3 h): 72.8% | MCH (3 h): 21.7 pg | MCHC (3 h): 36.1% | MCV (3 h): 60.2 fL | Mono (3 h): 3% | Neu (3 h): 21.6% | PT (3 h): 11.9 s | Plat (3 h): 113.7 x10_4/uL | RBC (3 h): 623.8 x10_4/ul | Ret (3 h): 7.9% | WBC (3 h): 110.8 x10_2/uL | KIDNEY_L (3 h): 1.1 g | KIDNEY_R (3 h): 1 g | KIDNEY_TOTAL (3 h): 2.1 g | LIVER (3 h): 10.2 g | A/G (3 h): 1.6 | ALP (3 h): 939.8 IU/L | ALT (3 h): 38.4 IU/L | AST (3 h): 73.4 IU/L | BUN (3 h): 10.8 mg/dL | CRE (3 h): 0.4 mg/dL | Ca (3 h): 10.6 mg/dL | Cl (3 h): 103.4 meq/L | DBIL (3 h): 0.068 mg/dL | GLC (3 h): 203.2 mg/dL | IP (3 h): 9.4 mg/dL | K (3 h): 4.2 meq/L | LDH (3 h): 162.6 IU/L | Na (3 h): 141.6 meq/L | PL (3 h): 140.4 mg/dL | RALB (3 h): 3.3 g/dL | TBIL (3 h): 0.1 mg/dL | TC (3 h): 78 mg/dL | TG (3 h): 55 mg/dL | TP (3 h): 5.3 g/dL | gamma-GTP (3 h): 0.8 IU/L | TERMINAL_BW (6 h): 218.3 g | APTT (6 h): 19 s | Bas (6 h): 0.2% | Eos (6 h): 1% | Fbg (6 h): 227.8 mg/dL | Hb (6 h): 14 g/dL | Ht (6 h): 39.1% | Lym (6 h): 73.6% | MCH (6 h): 21.4 pg | MCHC (6 h): 35.9% | MCV (6 h): 59.5 fL | Mono (6 h): 3.2% | Neu (6 h): 21.4% | PT (6 h): 12.2 s | Plat (6 h): 119.4 x10_4/uL | RBC (6 h): 656.8 x10_4/ul | Ret (6 h): 8.1% | WBC (6 h): 105 x10_2/uL | KIDNEY_L (6 h): 1 g | KIDNEY_R (6 h): 1 g | KIDNEY_TOTAL (6 h): 2 g | LIVER (6 h): 9.6 g | A/G (6 h): 1.6 | ALP (6 h): 907.4 IU/L | ALT (6 h): 34.4 IU/L | AST (6 h): 70.2 IU/L | BUN (6 h): 9.8 mg/dL | CRE (6 h): 0.4 mg/dL | Ca (6 h): 10.8 mg/dL | Cl (6 h): 103.8 meq/L | DBIL (6 h): 0.074 mg/dL | GLC (6 h): 193.2 mg/dL | IP (6 h): 9.3 mg/dL | K (6 h): 4 meq/L | LDH (6 h): 167.6 IU/L | Na (6 h): 142 meq/L | PL (6 h): 135.6 mg/dL | RALB (6 h): 3.3 g/dL | TBIL (6 h): 0.1 mg/dL | TC (6 h): 73.8 mg/dL | TG (6 h): 65.4 mg/dL | TP (6 h): 5.4 g/dL | gamma-GTP (6 h): 1 IU/L | TERMINAL_BW (9 h): 217.1 g | APTT (9 h): 19 s | Bas (9 h): 0.4% | Eos (9 h): 1.2% | Fbg (9 h): 223.8 mg/dL | Hb (9 h): 13.6 g/dL | Ht (9 h): 37.9% | Lym (9 h): 77% | MCH (9 h): 21.5 pg | MCHC (9 h): 36% | MCV (9 h): 59.8 fL | Mono (9 h): 2.8% | Neu (9 h): 18% | PT (9 h): 12.3 s | Plat (9 h): 127.9 x10_4/uL | RBC (9 h): 634.2 x10_4/ul | Ret (9 h): 7.7% | WBC (9 h): 93.6 x10_2/uL | KIDNEY_L (9 h): 1 g | KIDNEY_R (9 h): 1 g | KIDNEY_TOTAL (9 h): 2 g | LIVER (9 h): 9 g | A/G (9 h): 1.6 | ALP (9 h): 763.4 IU/L | ALT (9 h): 31.4 IU/L | AST (9 h): 63.6 IU/L | BUN (9 h): 9.4 mg/dL | CRE (9 h): 0.3 mg/dL | Ca (9 h): 10.6 mg/dL | Cl (9 h): 103.8 meq/L | DBIL (9 h): 0.062 mg/dL | GLC (9 h): 202 mg/dL | IP (9 h): 10.4 mg/dL | K (9 h): 3.9 meq/L | LDH (9 h): 122.2 IU/L | Na (9 h): 142.2 meq/L | PL (9 h): 129.8 mg/dL | RALB (9 h): 3.4 g/dL | TBIL (9 h): 0.1 mg/dL | TC (9 h): 70.6 mg/dL | TG (9 h): 35.4 mg/dL | TP (9 h): 5.4 g/dL | gamma-GTP (9 h): 1.2 IU/L | TERMINAL_BW (24 h): 234.1 g | APTT (24 h): 20.3 s | Bas (24 h): 0.6% | Eos (24 h): 1% | Fbg (24 h): 221.2 mg/dL | Hb (24 h): 13.4 g/dL | Ht (24 h): 37.5% | Lym (24 h): 77.6% | MCH (24 h): 21 pg | MCHC (24 h): 35.7% | MCV (24 h): 58.9 fL | Mono (24 h): 2.4% | Neu (24 h): 18% | PT (24 h): 11.7 s | Plat (24 h): 132.6 x10_4/uL | RBC (24 h): 637.2 x10_4/ul | Ret (24 h): 7.4% | WBC (24 h): 98.6 x10_2/uL | KIDNEY_L (24 h): 1.1 g | KIDNEY_R (24 h): 1.1 g | KIDNEY_TOTAL (24 h): 2.2 g | LIVER (24 h): 11.3 g | A/G (24 h): 1.6 | ALP (24 h): 911.2 IU/L | ALT (24 h): 35.8 IU/L | AST (24 h): 70 IU/L | BUN (24 h): 16.2 mg/dL | CRE (24 h): 0.4 mg/dL | Ca (24 h): 10.8 mg/dL | Cl (24 h): 103.2 meq/L | DBIL (24 h): 0.062 mg/dL | GLC (24 h): 188.4 mg/dL | IP (24 h): 7.6 mg/dL | K (24 h): 4 meq/L | LDH (24 h): 171.8 IU/L | Na (24 h): 142 meq/L | PL (24 h): 143 mg/dL | RALB (24 h): 3.4 g/dL | TBIL (24 h): 0.1 mg/dL | TC (24 h): 72.2 mg/dL | TG (24 h): 77.4 mg/dL | TP (24 h): 5.6 g/dL | gamma-GTP (24 h): 1.4 IU/L
